In patent US9643994B2, “Crystalline polymorphic form of ulipristal acetate” (ASKA PHARMACEUTICAL CO., LTD., priority 2012, dated 2017) one finds Solubility data, which are given here for two compounds.

Values after ≈ are worked out from the molar mass of the structure shown. Read-outs that look alike come from different tables or passages of the source.

This series in a line: Solubility in ethanol/water (10/90) mixed solvent at 37° C., HPLC quantitation. It counts as physicochemical. The source says: [Solubility] […] Then a portion of the suspension was separated.

The term Solubility denotes the dissolved amount per volume that the medium holds. Regarding `CC(=O)O[C@]1(C(C)=O)CCC2C3CCC4=CC(=O)CCC4=C3[C@@H](c3ccc(N(C)C)cc3)C[C@@]21C` (stereo partly drawn) [Comparative Example, 17alpha-acetoxy-11beta-(4-N,N-dimethylaminophenyl)-19-norpregna-4,9-diene-3,20-dione], the Solubility stood at 6.4 µg/mL (≈ 13.5 µM).
For the compound `CC(=O)O[C@]1(C(C)=O)CCC2C3CCC4=CC(=O)CCC4=C3[C@@H](c3ccc(N(C)C)cc3)C[C@@]21C` (stereo partly drawn) [Example 1, 17alpha-acetoxy-11beta-(4-N,N-dimethylaminophenyl)-19-norpregna-4,9-diene-3,20-dione], the Solubility (40 mg in 40 mL ethanol/water (volume ratio)=10/90, 37° C., stirred 5 minutes, filtered, HPLC UV 302 nm) is 9.2 µg/mL.
